Test results from patent US11078519B2, “Bioluminescent assays utilising secreted luciferases” (GENE STREAM PTY LTD., priority 2006, dated 2021).

How the values were obtained:
[1] = test system: non-secreted Gaussia luciferase; assay: Kinetic luminescence assay of non-secreted Gaussia luciferase in HeLa cell lysate with reducing agent in assay buffer; assay type: biochemical; details: for decay in luminescent signal over time compared with absence of reducing agent: all concentrations tested: DTT 4-50 mM, β-mercaptoethanol 10-100 mM, TCEP 500 uM or 5 mM, FIGS. 1A, 1B
Procedure: HeLa cells stably expressing non-secreted and destabilized Gaussia luciferase were plated onto 96-well plates and incubated overnight. The non-secreted luciferase is a modified Gaussia luciferase in which the 14 amino acid N-terminal signal peptide has been deleted. The destabilised luciferase is an enzyme containing a destabilising element such that it has a shortened half-life and is expressed at lower steady-state level than in the absence of the destabilising element.
Following the overnight incubation, medium was removed and the cells lysed in 20 ul lysis buffer comprising 25 mM Tris pH 8.1, 150 mM NaBr, 1 mM EDTA, 63.4 uM sodium oxalate, 0.1% NP40 substitute, 5% glycerol (GSv3). Luciferase activity was measured in a kinetic assay following injection of 60 ul of an assay buffer comprising 25 mM Tris pH 8.1; 1 mM EDTA, 2 mM Ascorbate and 26 uM Cz (STD), or the same assay buffer but also containing a reducing agent. Various concentrations of three reducing agents were used: DTT (4 mM, 10 mM, 20 mM or 50 mM); β-mercaptoethanol (10 mM, 20 mM, 50 mM, or 100 mM); and TCEP (500 uM or 5 mM). […] The effect was strongest at higher concentrations of a given reducing agent. […] The inventors have determined that this higher concentration produced beneficial effects in terms of bioluminescence generated by Gaussia luciferase. […]

[2] = test system: non-secreted Metridia luciferase; assay: Kinetic luminescence assay of non-secreted Metridia luciferase in HeLa cell lysate; assay type: biochemical; details: up to 120 minutes
From the text: (§1) HeLa cells were transiently transfected with expression plasmids encoding either Gaussia or Metridia luciferases in either their native secreted form or a modified non-secreted form. Secreted Metridia luciferase was obtained from Clontech and non-secreted Metridia luciferase was created in an analogous way to non-secreted Gaussia luciferase. The coding region was obtained by PCR using primers that delete the first 16 amino acids after ATG (the secretion signal) and the stop codon. The PCR product was ligated into a pRR23.1 plasmid (GeneStream, AU) to create a non-secreted but destabilized Metridia luciferase.
One day after transfection conditioned medium was removed for the secreted luciferases and the non-secreted luciferases were lysed as described in Example 1. Aliquots (20 ul) of conditioned medium or lysate were assayed for luciferase activity in kinetic assays following manual injection of assay buffer comprising the indicated concentrations of DTT in 25 mM Tris pH 7.75; 1 mM EDTA; 2 mM Ascorbic acid and 26 uM coelenterazine.
Experiments were performed as described in Example 5 for the non-secreted Gaussia and Metridia luciferases, except that the reducing agents used were: dithioerythritol (DTE) (FIGS. 6A and 6D); sodium sulfite (FIG. 6B); cysteamine (FIGS. 6C and 6E); TCEP (FIG. 6F); and β-mercaptoethanol (FIG. 6G).

[3] = test system: destabilised, non-secreted Gaussia luciferase; details: 5 mM glutathione (3:2 reduced:oxidized); fresh buffer; FIG. 15
Procedure: HeLa cells expressing a destabilised, non-secreted Gaussia luciferase were plated in equal aliquots onto 96-well plates and incubated overnight. The same lysis buffer was used for all samples. Luciferase activity was measured using fresh assay buffer containing the total amounts of glutathione (3:2 ratio of reduced:oxidized) indicated in FIG. 15. The assay buffers were then stored at room temperature for 7 hrs or at 4° C. for 22 hrs and used again to measure replicate samples.

[4] = test system: destabilised, non-secreted Gaussia luciferase; details: fresh assay buffer with glutathione; FIG. 14
Procedure: HeLa cells expressing a destabilised, non-secreted Gaussia luciferase were plated in equal aliquots onto 96-well plates and incubated overnight. The same lysis buffer was used for all samples. […] The assay buffers were then stored at room temperature for 4 hrs and used again to measure replicate samples.

[5] = biological target: T1, intracellular Renilla luciferase (Renilla reniformis, UniProt P27652); assay: Kinetic luminescence assay of Renilla luciferase in HeLa cell lysate; assay type: biochemical; details: 50 mM DTT in assay buffer; FIG. 4
T1 construct: expressed in transfected cells; host or cells: HeLa, transient; cell lysate
T1 sequence (P27652 1-311): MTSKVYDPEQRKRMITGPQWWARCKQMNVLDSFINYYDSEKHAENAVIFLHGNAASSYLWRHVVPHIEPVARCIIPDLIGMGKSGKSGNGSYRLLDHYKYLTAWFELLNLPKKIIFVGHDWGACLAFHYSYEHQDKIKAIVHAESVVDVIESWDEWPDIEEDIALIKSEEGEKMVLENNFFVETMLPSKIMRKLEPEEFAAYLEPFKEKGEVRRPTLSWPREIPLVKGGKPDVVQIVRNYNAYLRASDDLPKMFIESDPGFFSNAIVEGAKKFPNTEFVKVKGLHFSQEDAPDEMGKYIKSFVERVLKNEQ
Procedure: Similar experiment to those described in Example 1 were performed, with the exception that the HeLa cells transiently expressed the intracellular Renilla luciferase. A kinetic assay was performed after injection of assay buffer (with 50 mM DTT or no DTT) into wells containing 20 ul of lysate.

[6] = test system: wild-type secreted Gaussia luciferase; assay: Kinetic luminescence assay of secreted Gaussia luciferase in conditioned medium; assay type: biochemical
Procedure: Similar experiments were performed as described in Example 1 with the exception that the effect of DTT on the time course of luminescence was also investigated for the wild-type secreted Gaussia luciferase. This was achieved by transiently transfecting HeLa cells with a reporter plasmid encoding the wild-type Gaussia luciferase protein and harvesting the conditioned medium 24 hrs later. The assay buffer (with either 50 mM DTT or no DTT) was injected into wells containing 20 ul of the conditioned medium. Results were expressed as the % signal remaining compared to time zero (see FIG. 3).
as §1
One day after transfection conditioned medium was removed for the secreted luciferases and the non-secreted luciferases were lysed as described in Example 1. […]

[7] = test system: non-secreted Gaussia luciferase; assay: Flash intensity of non-secreted Gaussia luciferase in HeLa cell lysate; assay type: biochemical; details: 50 mM DTT in assay buffer; FIG. 12C
Procedure: (§2) Non-transfected HeLa cells and HeLa cells expressing non-secreted Gaussia luciferase were subjected to luciferase assays as follows. Cells were plated in equal aliquots onto a 96-well plate and incubated overnight. Medium was removed and cells lysed in 20 ul of the lysis buffer described in Example 1. Forty minutes later, light emission was measured using a Wallac Victor 3 luminometer (Perkin Elmer) immediately before and after injection of 60 ul of assay buffer comprised 25 mM Tris pH 8.1, 23.6 uM coelenterazine, 1 mM EDTA, 2 mM ascorbate plus the indicated concentration of DTT (see FIG. 8).

[8] = Background luminescent signal in lysate of non-transfected HeLa cells; details: DTT in assay buffer
Procedure: as §2

[9] = test system: non-secreted and destabilized Gaussia luciferase; assay: Dual-luciferase assay (Gaussia then firefly) in HeLa cell lysate; assay type: biochemical; details: Gaussia assay buffer with 50 mM DTT; FIG. 8
Procedure: HeLa cells stably expressing both a non-secreted and destabilized Gaussia luciferase and a destabilized firefly luciferase were plated onto 96-well plates and incubated overnight. Medium was removed and the cells lysed in 20 ul of the lysis buffer described in Example 1. Light emission was measured for 1 sec in a luminometer at the following times: immediately before addition of assay buffer (LB=background signal in absence of substrate); immediately after addition of Gaussia assay buffer (Ga) comprising 25 mM Tris pH 8.1; 1 mM EDTA, 2 mM Ascorbate, 23.6 uM Cz and 50 mM DTT; 15 mins after addition of Ga assay buffer (15 mins); and subsequently at 1 sec after addition of 60 ul of a firefly assay buffer (FF) comprising 25 mM Tris pH 7.35, 6 mM MgSO4, 36 mM DTT, 0.11 mM EDTA, 0.58 mM ATP, 0.3 mM CoA, 0.52 mM Luciferin, 1 mg/ml BSA. The results shown in FIG. 8 illustrate a strong Gaussia luciferase bioluminescent signal that can be measured in a flash reaction but which decays to background levels within approximately 15 mins without intervention or the need to add quenching reagents. Subsequent addition of a firefly reagent allows measurement of the firefly signal, thus completing a dual-luciferase assay.

[10] = test system: secreted Metridia luciferase; assay: Kinetic luminescence assay of secreted Metridia luciferase in conditioned medium; assay type: biochemical; details: varying DTT in assay buffer; up to 120 minutes; FIG. 5D
From the text: as §1, with “Metridia luciferase. One day after transfection conditioned medium was removed for the secreted luciferases and the non-secreted luciferases were lysed as described in Example 1. Aliquots (20 ul) of conditioned medium or lysate were assayed for luciferase activity in kinetic assays following manual injection of assay buffer comprising the indicated concentrations of DTT in 25 mM Tris pH 7.75; 1 mM EDTA; 2 mM Ascorbic acid and 26 uM coelenterazine.” for “Metridia luciferase.”

[11] = test system: secreted Gaussia luciferase; assay: Secreted Gaussia luciferase signal in cell lysate, lysis buffer with DTT; assay type: biochemical; details: 50 mM DTT in lysis buffer; 2 hour time-point, without doxycycline; FIG. 11B
Procedure: To test this hypothesis, HeLa cells were co-transfected with plasmids TRE-Rn and CMV-Ga (wild type, secreted), either alone or in combination. The latter provides constitutive expression of secreted Gaussia luciferase, whilst the former provides a doxycycline-repressible expression of intracellular Renilla luciferase. The cells were incubated overnight, the medium was removed and the cells rinsed once before addition of a fresh aliquot of medium either with or without 2 ug/ml doxycyline. At 2, 6 and 24 hrs later, samples of conditioned medium were taken. The cells were rinsed in fresh medium before being lysed using lysis buffer comprising 25 mM Tris pH 8.1, 150 mM NaBr, 1 mM EDTA, 63.4 uM sodium oxalate, 0.1% NP40 substitute, 5% glycerol; either with or without 50 mM DTT. 20 ul aliquots of conditioned medium and cell lysate were then assayed for luciferase activity following addition of 60 ul of assay buffer comprising 25 mM Tris pH 7.75; 1 mM EDTA; 2 mM Ascorbic acid and 26 uM coelenterazine.

[12] = varying concentrations of reducing agent, up to 50 minutes, FIGS. 6D-6G
[13] = varying concentrations of reducing agent, FIGS. 6A-6C

OCCS [β-mercaptoethanol]
decay in luminescent signal over time compared with absence of reducing agent [1]: more rapid decay in luminescent signal
light emission over time [1, 12]: rapid decline in light emission

O[C@H](CS)[C@@H](O)CS [DTE, dithioerythritol]
light emission over time [1, 12]: rapid decline in light emission
light emission over time [2, 13]: rapid decline in light emission

O=S([O-])[O-].[Na+].[Na+] [sodium sulfite]
light emission over time [2, 13]: rapid decline in light emission

NCCS [cysteamine]
light emission over time [1, 12]: rapid decline in light emission
light emission over time [2, 13]: rapid decline in light emission

N[C@@H](CCC(=O)N[C@@H](CS)C(=O)NCC(=O)O)C(=O)O [glutathione]
initial activity of assay buffer [3]: initial activity was reduced
baseline activity of the fresh buffers [4]: reduces the assay buffer activity

O[C@H](CS)[C@H](O)CS [DTT, dithiothreitol]
kinetics of light emission [5]: prolongs the light emission
light emission over time (% signal remaining compared to time zero) ([6]; 50 mM DTT in assay buffer, native secreted form, conditioned medium, FIG. 3): very rapid decline in light emission
light emission over time ([6]; varying DTT in assay buffer, up to 120 minutes, FIG. 5B): very rapid decline in light emission
true luciferase signal in flash reactions [7]: does not reduce the true luciferase signal
reduction in the background signal generated by the assay buffer ([8]; after subtraction of the pre-read, FIG. 12B): more than 80%
reduction in the overall background signal ([8]; raw RLU after injection, FIG. 12A): more than 50%
time for Gaussia luciferase signal to decay to background levels [9]: ≤ 15 min
light emission over time (% signal remaining compared to time zero) ([1]; 50 mM DTT in assay buffer, modified non-secreted form, FIG. 3): very rapid decline in light emission
time for signal to drop to approximately background levels (~100 RLU) ([1]; DTT 50 mM to 500 mM, all concentrations, FIG. 2B): ≤ 10 min
rate of decay in luminescent signal versus concentration ([1]; DTT 50 mM to 500 mM, FIG. 2A): directly related to the concentration of DTT
light emission after addition during glow phase (% of light units at time zero) ([1]; DTT added 40 minutes after initiation of reaction, FIG. 7): rapid decline in light emission
light emission during the first few seconds after injection of the reducing agent ([1]; DTT added during glow phase, FIG. 7): lack of any significant decay in light emission
decay in luminescent signal over time compared with absence of reducing agent [1]: more rapid decay in luminescent signal
initial signal intensity ([1]; up to 50 mM DTT): does not cause any reduction in initial signal intensity
light emission over time ([1]; varying DTT in assay buffer, up to 120 minutes, FIG. 5A): very rapid decline in light emission
light emission over time [10]: very rapid decline in light emission
light emission over time ([2]; varying DTT in assay buffer, FIG. 5C): very rapid decline in light emission
signal in the lysate of cells expressing only Gaussia luciferase [11]: no signal was detected

O=C(O)CCP(CCC(=O)O)CCC(=O)O [TCEP, tris(2-carboxyethyl)phosphine]
decay in luminescent signal over time compared with absence of reducing agent [1]: more rapid decay in luminescent signal
light emission over time [1, 12]: rapid decline in light emission
